Source: article PMC7582714, “Cooperative Binding of the Cationic Porphyrin Tris-T4 Enhances Catalytic Activity of 20S Proteasome Unveiling a Complex Distribution of Functional States” (International Journal of Molecular Sciences, 2020)

Columns and labels:
[1] = test system: purified rabbit 20S proteasome; design: method as in PMID 22642538; conditions: 100 µM fluorogenic substrate; apparent inhibition; read-out: IC50, chymotryptic-like activity; cited from earlier work
[2] = test system: T1, yeast α3ΔN mutant of 20S proteasome; assay: 20S proteasome chymotryptic-like activity assay (Suc-LLVY-AMC), steady-state kinetics vs Tris-T4 concentration; type: biochemical
T1 construct: Yeast CP 20S wild-type and the mutant form, α3ΔN, were purified as previously reported; made in house; host or cells: yeast
T1 sequence (P23639 whole entry, stated change not applied): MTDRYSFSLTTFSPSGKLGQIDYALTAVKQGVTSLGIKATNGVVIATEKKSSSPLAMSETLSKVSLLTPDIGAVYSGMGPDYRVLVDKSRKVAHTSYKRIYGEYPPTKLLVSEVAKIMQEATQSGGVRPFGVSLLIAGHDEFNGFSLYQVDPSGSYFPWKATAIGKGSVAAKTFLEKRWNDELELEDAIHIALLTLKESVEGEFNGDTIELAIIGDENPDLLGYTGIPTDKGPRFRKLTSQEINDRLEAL
T1 sequence (P32379 whole entry, stated change not applied, further chain): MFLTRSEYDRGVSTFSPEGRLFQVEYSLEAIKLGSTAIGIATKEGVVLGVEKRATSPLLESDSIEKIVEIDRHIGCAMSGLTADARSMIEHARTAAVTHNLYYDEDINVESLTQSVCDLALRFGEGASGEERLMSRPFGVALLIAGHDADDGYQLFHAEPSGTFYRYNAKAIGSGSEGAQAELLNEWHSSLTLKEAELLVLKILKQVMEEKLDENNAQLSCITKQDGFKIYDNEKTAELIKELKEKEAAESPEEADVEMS
T1 sequence (P40303 whole entry, stated change not applied, further chain): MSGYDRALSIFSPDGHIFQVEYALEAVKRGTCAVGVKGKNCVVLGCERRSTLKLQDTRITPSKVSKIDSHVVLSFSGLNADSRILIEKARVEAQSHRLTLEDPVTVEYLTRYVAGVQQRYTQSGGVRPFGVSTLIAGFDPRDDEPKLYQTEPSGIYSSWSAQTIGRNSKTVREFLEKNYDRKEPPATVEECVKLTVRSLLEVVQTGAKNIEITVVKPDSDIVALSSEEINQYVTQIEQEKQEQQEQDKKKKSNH
T1 sequence (P40302 whole entry, stated change not applied, further chain): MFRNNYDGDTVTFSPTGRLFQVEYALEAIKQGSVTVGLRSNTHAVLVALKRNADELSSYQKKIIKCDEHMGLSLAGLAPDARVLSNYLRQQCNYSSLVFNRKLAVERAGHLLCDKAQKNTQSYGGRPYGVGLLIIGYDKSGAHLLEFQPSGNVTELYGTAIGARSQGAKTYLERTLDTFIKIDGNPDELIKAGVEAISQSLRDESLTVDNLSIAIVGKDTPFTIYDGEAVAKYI
T1 sequence (P21243 whole entry, stated change not applied, further chain): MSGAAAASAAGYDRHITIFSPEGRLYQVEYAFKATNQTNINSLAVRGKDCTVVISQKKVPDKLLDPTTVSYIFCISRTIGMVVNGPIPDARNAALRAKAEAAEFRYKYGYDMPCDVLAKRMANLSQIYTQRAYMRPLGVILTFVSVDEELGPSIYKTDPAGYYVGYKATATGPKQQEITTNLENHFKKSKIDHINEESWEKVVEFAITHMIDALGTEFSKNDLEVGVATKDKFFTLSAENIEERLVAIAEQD
Description: (§1) Then, we have extended the investigation on the functional modulation of the chymotryptic-like activity by Tris-T4 porphyrin also to wt y20S proteasome and to its mutant α3ΔN, which is characterized by a significant enhancement of the enzymatic activity, ascribed to disruption of the gate closing mechanism.
(§2) In addition, for the sake of clarity, in Scheme 1 some of these parameters are reported as interaction ratios, namely α = KAU/KAL, β = KBU/KBL, γ = KBU/KAU, and δ = KBL/KAL. Finally, σA and σB refer to the eventual effect of Tris-T4 binding on the catalytic rate-limiting step kcat of either state A and/or state B (see Scheme 1). […] (1) kobscat=kcatA⋅(1+KAL⋅[Tris_T4])^n+LL⋅kcatB⋅(1+KBL⋅[Tris_T4])^n/(1+KAL⋅[Tris_T4])^n+LL⋅(1+KBL⋅[Tris_T4])^n (2) Kobsm=K0m⋅(1+KAU⋅[Tris_T4])^n+LU⋅(1+KBI⋅[Tris_T4])^m⋅(1+KBU⋅[Tris_T4])^n/(1+KAL⋅[Tris_T4])^n+LL⋅(1+KBL⋅[Tris_T4])^n (3) kobscat/Kobsm=kcatA/KmA⋅(1+KAU⋅[Tris_T4])^n+LU⋅kcatB/KmB⋅(1+KBI⋅[Tris_T4])^m⋅(1+KBU⋅[Tris_T4])^n/(1+KAU⋅[Tris_T4])^n+LU⋅(1+KBI⋅[Tris_T4])^m⋅(1+KBU⋅[Tris_T4])^n
(§3) 20S proteasome activity assays were performed in vitro in the assay buffer (i.e., 50 mM TrisHCl, pH 8.0) by mixing 20S proteasome (2 nM) with increasing concentrations (0.1–10 µM) of Tris-T4 incubating for 30 min at 37 °C. Then, varying concentrations (between 5 µM and 100 µM) of fluorogenic peptide were added in a 384 multiwell black plate. A minimum of three replicates were performed for each data point. […] Data relative to CP activities at different substrate concentrations have been analyzed by a double reciprocal Lineweaver–Burk plot, according to the following equation:(4) [E0]/v=Km/±kcatx 1/[S]+1/kcat where (E0) is the enzyme concentration, ν is the observed velocity (expressed as moles of substrate cleaved per time interval unit), (S) is the substrate concentration, Km is the Michaelis–Menten equilibrium constant, referring to the affinity for substrate, and kcat is the velocity of the rate-limiting step. All curve fitting and statistical analysis were carried out using the non-linear fitting tool (NLFit) and MatLab (The Math works Inc., Natick, MA, USA). The parametric data fitting was based on nonlinear regression and the method of least squares. Model discrimination and choice was based on the goodness of fit. The goodness of fit was evaluated by visual examination of the fitted curves, 95% confidence bounds for the fitted coefficients and statistical analysis for determining the square of the multiple correlation coefficient (R^2).The Gibbs free energy difference (ΔG^0 = −RT lnK) was calculated using the values of the equilibrium constants reported in Table 1 and corresponds to −ΔG^0 of the considered conformational transition equilibrium as depicted in Scheme 1.

wt y20S proteasome = test system: T2, wt y20S proteasome; assay: as above; type: biochemical, yeast
T2 construct: Yeast CP 20S wild-type and the mutant form, α3ΔN, were purified as previously reported; made in house; host or cells: yeast
Description: as §1, §2, §3

human 20S proteasome = test system: T3, human 20S proteasome; assay: as above; type: biochemical
T3 construct: purchased Boston Biochem
Description: In order to better characterize the effect of Tris-T4 on the functional properties of the 20S proteasome, we have carried out an investigation on the steady-state chymotryptic-like activity of h20S as a function of Tris-T4 concentration, employing different substrate concentrations.
as §2, §3

h20S proteasome = test system: T4, h20S proteasome; assay: STD and WaterLOGSY NMR interaction study; type: binding, human; conditions: Tris-T4 175 μM, 20S 860 nM; 50 mM Hepes, 100 mM NaCl, 1mM DTT
T4 construct: purchased Boston Biochem
Procedure: For NMR interaction studies, Saturation Transfer Difference (STD) and WaterLogsy (WL) experiments were employed to derive the ligand binding epitope.
As a starting point, the Tris-T4 structure has been analyzed by ^1H NMR spectroscopy in the buffer (50 mM Hepes, 100 mM NaCl and 1mM DTT). The ^1H chemical shift assignments of Tris-T4 are reported in Supplementary Figure S1. Both STD- and WL-NMR spectra of Tris-T4 were acquired in a 200-fold excess over the h20S proteasome.
Then, to identify the ligand moiety more closely interacting with the protein, we evaluated and compared the saturation effects of the individual Tris-T4 proton resonances (ISTD = I0 − Isat). The signal showing the largest ISTD/I0 value, the para phenyl proton, was normalized to 100% (Figure 7). The relative degree of saturation of the individual protons, normalized to that of the para phenyl proton, was then used to compare the STD effect.

h20S = conditions: cited from earlier work
[3] = Michaelis-Menten constant in state A
[4] = state A, substrate-bound ES complex
[5] = state B, substrate-bound ES complex
[6] = Michaelis-Menten constant in state B (stabilized by Tris-T4)

SMILES: C[n+]1ccc(-c2c3nc(c(-c4cc[n+](C)cc4)c4ccc([nH]4)c(-c4cc[n+](C)cc4)c4nc(c(-c5ccccc5)c5ccc2[nH]5)C=C4)C=C3)cc1 [Tris-T4, 5-(phenyl)-10,15,20-(tri N-methyl-4-pyridyl) porphyrin]
- IC50 [1]: 920 ± 60 nM
- m, number of competitive inhibitory sites ([2]; Eq 1-3): 1
- n, number of concerted allosteric binding sites for Tris-T4 ([2]; Eq 1-3): 2
- KmA [2, 3]: 4.1(± 0.6) × 10^−3 M
- KmB ([2]; Michaelis-Menten constant in state B): 1.07(± 0.27) × 10^−2 M
- effect on chymotryptic-like activity ([2]; Tris-T4 0-5 μM, no activation): only the competitive inhibitory effect is observed
- LU, equilibrium constant between A and B ([2]; absence of the substrate): 3.9(± 0.6) × 10^−2
- KAU, affinity constant for Tris-T4 ([2]; state A, absence of substrate): 3.0(± 0.5) × 10^5 M^−1
- KAL, affinity constant for Tris-T4 [2, 4]: 1.2(± 0.4) × 10^5 M^−1
- kcatA ([2]; state A, same kcat imposed for both states): 49.5 ± 5.6 s⁻¹
- KBI, affinity constant for Tris-T4 to the inhibitory competitive site ([2]; state B): 2.5(± 0.4) × 10^6 M^−1
- KBU, affinity constant for Tris-T4 ([2]; state B, absence of substrate): 9.0(± 1.8) × 10^7 M^−1
- KBL, affinity constant for Tris-T4 [2, 5]: 1.3(± 0.3) × 10^8 M^−1
- kcatB ([2]; state B, same kcat imposed for both states): 49.5 ± 5.6 s⁻¹
- LL, equilibrium constant between A and B ([2]; substrate-bound ES complex): 1.5(± 1.0) × 10^−2
- m, number of competitive inhibitory sites (wt y20S proteasome; Eq 1-3): 1
- n, number of concerted allosteric binding sites for Tris-T4 (wt y20S proteasome; Eq 1-3): 2
- KmA (wt y20S proteasome; [3]): 1.17(± 0.22) × 10^−4 M
- KmB (wt y20S proteasome; [6]): 9.04(± 1.82) × 10^−6 M
- effect on chymotryptic-like activity at higher Tris-T4 concentrations (wt y20S proteasome; above 1 μM Tris-T4, overwhelms the activation): competitive inhibitory effect
- LU, equilibrium constant between A and B (wt y20S proteasome; absence of the substrate): 6.0(± 1.0) × 10^−4 (2)
- Tris-T4 concentration at which activation is essentially completed (wt y20S proteasome; chymotryptic-like activity): 1 µM
- kcatA (wt y20S proteasome; rate-limiting step in state A, fit of Eq 1-3): 0.95 ± 0.15 s⁻¹
- kcatB (wt y20S proteasome; rate-limiting step in state B (stabilized by Tris-T4)): 0.17 ± 0.03 s⁻¹
- KAU, affinity constant for Tris-T4 (wt y20S proteasome; state A, absence of substrate): 3.0(± 0.5) × 10^5 M^−1
- KBI, affinity constant for Tris-T4 to the inhibitory competitive site (wt y20S proteasome; state B): 2.5(± 0.4) × 10^6 M^−1
- KBU, affinity constant for Tris-T4 (wt y20S proteasome; state B, absence of substrate): 9.0(± 1.8) × 10^7 M^−1
- KBL, affinity constant for Tris-T4 (wt y20S proteasome; [5]): 1.3(± 0.3) × 10^8 M^−1
- LL, equilibrium constant between A and B (wt y20S proteasome; substrate-bound ES complex): 7.8(± 1.5) × 10^−3 (2)
- effect on chymotryptic-like activity (human 20S proteasome; (Substrate) < 25 µM, Tris-T4 0-10 μM): activator
- m, number of competitive inhibitory sites (human 20S proteasome; Eq 1-3): 0
- KmA (human 20S proteasome; [3]): 1.95(± 0.37) × 10^−3 M
- KmB (human 20S proteasome; [6]): 1.5(± 0.3) × 10^−4 M
- LU, equilibrium constant between A and B (human 20S proteasome; absence of the substrate, floating parameter of the two-state model): 3.0(± 0.5) × 10^−6 (3)
- Tris-T4 concentration at which activation is essentially completed (human 20S proteasome; chymotryptic-like activity): 3 µM
- n, number of concerted allosteric binding sites for Tris-T4 (human 20S proteasome; minimum value, Eq 1-3): 3
- kcatA (human 20S proteasome; rate-limiting step in state A, fit of Eq 1-3, substrate ≤ 25 μM, pH 8.0, 37 °C): 11.5 ± 1.3 s⁻¹
- kcatB (human 20S proteasome; rate-limiting step in state B (stabilized by Tris-T4), fit of Eq 1-3): 0.32 ± 0.05 s⁻¹
- KAU, affinity constant for Tris-T4 (human 20S proteasome; state A, absence of substrate): 2.0(± 0.3) × 10^4 M^−1
- KAL, affinity constant for Tris-T4 (human 20S proteasome; [4]): 1.2(± 0.3) × 10^4 M^−1
- KBU, affinity constant for Tris-T4 (human 20S proteasome; state B, absence of substrate): 8.2(± 1.2) × 10^7 M^−1
- KBL, affinity constant for Tris-T4 (human 20S proteasome; [5]): 1.35(± 0.28) × 10^8 M^−1
- LL, equilibrium constant between A and B (human 20S proteasome; substrate-bound ES complex): 3.9(± 0.6) × 10^−5 (3)
- free energy contribution of each Tris-T4 binding step (RTln(KBL/KAL)) (human 20S proteasome; substrate-bound state): 5.71 kcal/mol
- free energy contribution of each Tris-T4 binding step (RTln(KBU/KAU)) (human 20S proteasome; substrate-free conformation): 5.11 kcal/mol
- free energy for the A → B transition in favor of the B functional state (RTlnLUγ^3) (human 20S proteasome; substrate-free porphyrin triple-bound enzyme): 7.5 kcal/mol
- STD and WL-NMR spectra, interaction (h20S proteasome): positive signals

SMILES: C[n+]1ccc(-c2ccc(-c3c4nc(c(-c5ccc(-c6cc[n+](C)cc6)cc5)c5ccc([nH]5)c(-c5ccc(-c6cc[n+](C)cc6)cc5)c5nc(c(-c6ccc(-c7cc[n+](C)cc7)cc6)c6ccc3[nH]6)C=C5)C=C4)cc2)cc1 [pTMPyPP4, meso-tetrakis (4-N-methylphenyl-pyridyl)-porphyrin]
- mode of action on h20S (h20S): allosteric inhibitor

SMILES: C[n+]1ccc(-c2c3nc(c(-c4cc[n+](C)cc4)c4ccc([nH]4)c(-c4cc[n+](C)cc4)c4nc(c(-c5cc[n+](C)cc5)c5ccc2[nH]5)C=C4)C=C3)cc1 [H2T4, meso-tetrakis (4-N-methylpyridyl)-porphyrin]
- mode of action on h20S (h20S): competitive inhibitor
